Source: US8642629B2, “Naphthylacetic acids” (Hoffmann-La Roche Inc., priority 2008, dated 2014)

Target: T1, human CRTH2 (Homo sapiens, UniProt Q9Y5Y4)
T1 construct: expressed in transfected cells; host or cells: CHO-K1
T1 sequence (Q9Y5Y4 1-395): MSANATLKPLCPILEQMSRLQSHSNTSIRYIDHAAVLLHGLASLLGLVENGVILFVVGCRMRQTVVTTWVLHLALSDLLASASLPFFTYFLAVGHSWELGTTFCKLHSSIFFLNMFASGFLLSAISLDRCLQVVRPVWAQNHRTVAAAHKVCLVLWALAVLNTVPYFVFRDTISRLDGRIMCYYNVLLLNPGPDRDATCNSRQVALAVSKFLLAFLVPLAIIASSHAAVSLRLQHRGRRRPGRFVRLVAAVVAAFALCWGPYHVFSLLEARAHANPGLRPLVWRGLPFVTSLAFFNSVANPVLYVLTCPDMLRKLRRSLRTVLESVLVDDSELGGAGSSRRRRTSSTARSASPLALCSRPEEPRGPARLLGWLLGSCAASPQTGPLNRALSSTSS
Assay: Human CRTH2 Receptor Binding Assay (whole cell, [3H]ramatroban competition)
Conditions: CHO-K1 cells expressing human CRTH2 and G-alpha16; 20 nM [3H]ramatroban; 1 hour, room temperature
Excerpt: A whole cell receptor binding assay using [^3H]ramatroban as the competing radioactive ligand was employed to evaluate the compound binding activity to human CRTH2. The radioactive ligand [^3H]ramatroban was synthesized according to Sugimoto et. al. (Eur. J. Pharmacol. 524, 30-37, 2005) to a specific activity of 42 Ci/mmol.
A cell line stably expressing human CRTH2 was established by transfecting CHO-K1 cells with two mammalian expression vectors that harbored human CRTH2 and G-alpha16 cDNAs, respectively, using FuGene® 6 transfection reagent (from Roche). Stable clones expressing CRTH2 were selected by staining each clone with BM16 (BD Pharmingen™ from BD Biosciences, a division of Becton, Dickinson and Company), which is a rat monoclonal antibody to human CRTH2. The cells were maintained as monolayer cultures in Ham's F-12 medium containing 10% fetal bovine serum, 100 units/mL penicillin, 100 μg/mL streptomycin, 2 mM glutamine, 0.5 mg/mL G418 (geneticin) for CRTH2, and 0.2 mg/mL hygromycin-B (for G-alpha 16). For whole cell receptor binding assay, the monolayer cells were rinsed once with PBS (phosphate buffered saline), dissociated using ethylenediaminetetraacetate (Versene™ EDTA from Lonza Inc.), and suspended in PBS containing 10 mM MgCl2 and 0.06% BSA (bovine serum albumin) at 1.5×10^6 cells/mL.
The binding reactions (0.2 mL) were performed in 96-well plates at room temperature in PBS containing 1.5×10^5 cells, 10 mM MgCl2, 0.06% BSA, 20 nM [^3H]ramatroban, and test compound at various concentrations. After 1 hour of binding reactions, the cells were harvested on GF™/B filter microplates (microtiter plates with embedded glass fiber from PerkinElmer, Inc.) and washed 5 times with PBS using a Filtermate™ Harvester (a cell harvester that harvests and washes cells from microplates from PerkinElmer, Inc.). The radioactivities bound to the cells were determined using a microplate scintillation counter (TopCount® NXT, from PerkinElmer, Inc.) after adding 50 μL of Microscint™ 20 scintillation fluid (from PerkinElmer, Inc.) to each well of the filter plates. The radioactivity from non-specific binding was determined by replacing compound with 10 μM of 15(R)-15-methyl PGD2 (from Cayman Chemical Company) in the reaction mixtures. The radioactivity bound to the cells in the absence of compound (total binding) was determined by replacing compound with 0.25% of DMSO (dimethyl sulfoxide) in the reaction mixture. Specific binding data were obtained by subtracting the radioactivity of non-specific binding from each binding data.
The IC50 value is defined as the concentration of the tested compound that is required for 50% inhibition of total specific binding. In order to calculate the IC50 value, the percent inhibition data were determined for 7 concentrations for each compound. The percent inhibition for a compound at each concentration was calculated according to the following formula, [1−(specific binding in the presence of compound)/(total specific binding)]×100. The IC50 value was then obtained by fitting the percent inhibition data to a sigmoidal dose-response (4 parameter logistic) model in the XLfit® software Excel add-in program [from ID Business Solutions Ltd., model 205, where F(x)=(A+(B−A)/(1+((C/x)^D)))].

Row | Structure (SMILES) | IC50
1 | Cc1cc(S(C)(=O)=O)cnc1Oc1cc(CC(=O)O)cc2ccc(F)cc12 [Example 1-10, [6-fluoro-4-(5-methanesulfonyl-3-methyl-pyridin-2-yloxy)-naphthalen-2-yl]-acetic acid] | 3.3 nM
2 | CS(=O)(=O)c1ccc(Oc2cc(CC(=O)O)c(F)c3ccc(F)cc23)nc1 [Example 4-1, [1,6-difluoro-4-(5-methanesulfonyl-pyridin-2-yloxy)-naphthalen-2-yl]-acetic acid] | 7.9 nM
3 | CS(=O)(=O)c1ccc(Oc2cc(CC(=O)O)cc3ccccc23)cc1 [Example 3-1, [4-(4-methanesulfonyl-phenoxy)-naphthalen-2-yl]-acetic acid] | 12.9 nM
4 | CCS(=O)(=O)c1ccc(Oc2c(C)c(CC(=O)O)cc3ccc(F)cc23)cc1F [Example 2-17, [4-(4-ethanesulfonyl-3-fluoro-phenoxy)-6-fluoro-3-methyl-naphthalen-2-yl]-acetic acid] | 3.7 nM
5 | O=C(O)Cc1cc(Oc2ccc(S(=O)(=O)C3CC3)cc2)c2cc(F)ccc2c1 [Example 1-5, [4-(4-cyclopropanesulfonyl-phenoxy)-6-fluoro-naphthalen-2-yl]-acetic acid] | 9.3 nM
6 | Cc1ccc(S(=O)(=O)c2ccc(Oc3c(C)c(CC(=O)O)cc4ccc(F)cc34)cc2)cc1 [Example 2-29, {6-fluoro-3-methyl-4-[4-(toluene-4-sulfonyl)-phenoxy]-naphthalen-2-yl}-acetic acid] | 2.8 nM
7 | Cc1c(CC(=O)O)cc2ccc(F)cc2c1Oc1ccc(S(C)(=O)=O)cn1 [Example 2-32, [6-fluoro-4-(5-methanesulfonyl-pyridin-2-yloxy)-3-methyl-naphthalen-2-yl]-acetic acid] | 0.9 nM
8 | CCS(=O)(=O)c1ccc(Oc2c(C)c(CC(=O)O)cc3ccc(F)cc23)cc1C [Example 2-14, [4-(4-ethanesulfonyl-3-methyl-phenoxy)-6-fluoro-3-methyl-naphthalen-2-yl]-acetic acid] | 1.6 nM
9 | CS(=O)(=O)c1ccc(Oc2cc(CC(=O)O)cc3ccc(F)cc23)nc1 [Example 1-9, [6-fluoro-4-(5-methanesulfonyl-pyridin-2-yloxy)-naphthalen-2-yl]-acetic acid] | 3.7 nM
10 | Cc1cc(Oc2cc(CC(=O)O)cc3ccc(F)cc23)ccc1S(C)(=O)=O [Example 1-7, [6-fluoro-4-(4-methanesulfonyl-3-methyl-phenoxy)-naphthalen-2-yl]-acetic acid] | 3.5 nM

Now from value to compound:

Row | IC50 | Structure (SMILES)
11 | 3.4 nM | Cc1c(CC(=O)O)cc2ccc(F)cc2c1Oc1ccc(S(C)(=O)=O)c(F)c1 [Example 2-16, [6-fluoro-4-(3-fluoro-4-methanesulfonyl-phenoxy)-3-methyl-naphthalen-2-yl]-acetic acid]
12 | 2.5 nM | CCS(=O)(=O)c1cnc(Oc2cc(CC(=O)O)cc3ccc(F)cc23)c(C)c1 [Example 1-12, [4-(5-ethanesulfonyl-3-methyl-pyridin-2-yloxy)-6-fluoro-naphthalen-2-yl]-acetic acid]
13 | 3.1 nM | Cc1cc(S(C)(=O)=O)cnc1Oc1c(C)c(CC(=O)O)cc2ccc(F)cc12 [Example 2-34, [6-fluoro-4-(5-methanesulfonyl-3-methyl-pyridin-2-yloxy)-3-methyl-naphthalen-2-yl]-acetic acid]
14 | 3.1 nM | CS(=O)(=O)c1ccc(Oc2cc(CC(=O)O)cc3ccc(F)cc23)cc1 [Example 1-2, [6-fluoro-4-(4-methanesulfonyl-phenoxy)-naphthalen-2-yl]-acetic acid]
15 | 2.1 nM | CCCCS(=O)(=O)c1ccc(Oc2c(C)c(CC(=O)O)cc3ccc(F)cc23)cc1 [Example 2-23, {4-[4-(butane-1-sulfonyl)-phenoxy]-6-fluoro-3-methyl-naphthalen-2-yl}-acetic acid]
16 | 2.4 nM | CCS(=O)(=O)c1ccc(Oc2c(C)c(CC(=O)O)cc3ccc(F)cc23)c(Cl)c1 [Example 2-21, [4-(2-chloro-4-ethanesulfonyl-phenoxy)-6-fluoro-3-methyl-naphthalen-2-yl]-acetic acid]
